Experiments:
[1] = Lipid nanoparticle size and polydispersity by dynamic light scattering; assay type: physicochemical; conditions: LNP comprising the compound, hEPO mRNA; for Size (nm): cationic lipid/DSPC/cholesterol/PEG-lipid 50:10:38.5:1.5
Protocol: (§1) Briefly, a cationic lipid provided herein, DSPC, cholesterol, and PEG-lipid were solubilized in ethanol at a molar ratio of 50:10:38.5:1.5, and mRNA were diluted in 10 to 50 mM citrate buffer, pH=4. The LNPs were prepared at a total lipid to mRNA weight ratio of approximately 10:1 to 30:1 by mixing the ethanolic lipid solution with the aqueous mRNA solution at a volume ratio of 1:3 using a microfluidic apparatus, total flow rate ranging from 9-30 mL/min. Ethanol were thereby removed and replaced by DPBS using dialysis. Finally, the lipid nanoparticles were filtered through a 0.2 μm sterile filter.
(§2) Lipid nanoparticle size were determined by dynamic light scattering using a Malvern Zetasizer Nano ZS (Malvern UK) using a 173° backscatter detection mode. The encapsulation efficiency of lipid nanoparticles were determined using a Quant-it Ribogreen RNA quantification assay kit (Thermo Fisher Scientific, UK) according to the manufacturer's instructions.

[2] = Apparent pKa of LNP formulations (TNS fluorescence assay); assay type: physicochemical; conditions: LNP formulation, TNS assay (Table 2)
Protocol: As reported in literature, the apparent pKa of LNP formulations correlates with the delivery efficiency of LNPs for nucleic acids in vivo. The apparent pKa of each formulation was determined using an assay based on fluorescence of 2-(p-toluidino)-6-napthalene sulfonic acid (TNS). LNP formulations comprising of cationic lipid/DSPC/cholesterol/DMG-PEG (50/10/38.5/1.5 mol %) in PBS were prepared as described above. TNS was prepared as a 300 μM stock solution in distilled water. LNP formulations were diluted to 0.1 mg/mL total lipid in 3 mL of buffered solutions containing 50 mM sodium citrate, 50 mM sodium phosphate, 50 mM sodium borate, and 30 mM sodium chloride where the pH ranged from 3 to 9. An aliquot of the TNS solution was added to give a final concentration of […] and following vortex mixing fluorescence intensity was measured at room temperature in a Molecular Devices Spectramax iD3 spectrometer using excitation and mission wavelengths of 325 nm and 435 nm. A sigmoidal best fit analysis was applied to the fluorescence data and the pKa value was measured as the pH giving rise to half-maximal fluorescent intensity.

[3] = system: human erythropoietin (hEPO) mRNA expression; test: Animal Study 1: hEPO mRNA LNPs i.v. in mice, serum EPO by ELISA; assay type: in vivo; conditions: female ICR mice, 0.5 mg/kg tail vein injection, blood e.g. 6 hours post administration; relative to MC3 LNP
Protocol: Lipid nanoparticles comprising compounds in the following table encapsulating human erythropoietin (hEPO) mRNA were systemically administered to 6-8 week old female ICR mice (Xipuer-Bikai, Shanghai) at 0.5 mg/kg dose by tail vein injection and mice blood were sampled at specific time points (e.g., 6 hours) post administration. In addition to the aforementioned tested groups, lipid nanoparticles comprising dilinoleylmethyl-4-dimethylaminobutyrate (DLin-MC3-DMA, usually abbreviated to MC3) encapsulating hEPO mRNA were similarly administered at the same dose to age and gender comparative groups of mice as a positive control.
Mice were euthanized by CO2 overdoses after the last sampling time point. Serum were separated from total blood by centrifugation at 5000 g for 10 minutes at 4 T, snap-frozen and stored at −80 T for analysis. ELISA assay were carried out using a commercial kit (DEP00, R&D systems) according to manufacturer's instructions.
Characteristics of tested lipid nanoparticles, including EPO expression levels over MC3 measured from the tested group are listed in the table below.

[4] = Encapsulation efficiency of lipid nanoparticles (Quant-it Ribogreen RNA assay); assay type: physicochemical; conditions: LNP comprising the compound, hEPO mRNA
Protocol: as §1, §2

SMILES | Polydispersity [1] | Size (nm) [1] | Apparent pKa [2] | Encapsulation efficiency [4] | EPO expression over MC3 [3]
CCCCCCCC(=O)OCC(COC(=O)CCCCCCC)COC(=O)CCCCCN(CCCO)CCCCCC(=O)OCC(COC(=O)CCCCCCC)COC(=O)CCCCCCC [Compound 66] | 0.010 | 113.3 nm | 6.379 | 95.46% | A (≥2)
CCCCCCCC(=O)OCC(CCCCN(CCCCC(COC(=O)CCCCCCC)COC(=O)CCCCCCC)C1CC(CO)(CO)C1)COC(=O)CCCCCCC [Compound 61] | 0.066 | 72.95 nm | 7.32 | 91.26% | C (≥0.1 and <1)
CCCCCCCC(=O)OCC(CC)(COC(=O)CCCCCCC)COC(=O)CCCCCN(CCO)CCCCCC(=O)OCC(CC)(COC(=O)CCCCCCC)COC(=O)CCCCCCC [Compound 82] | 0.010 | 69.37 nm | 6.342 | 95.75% | A (≥2)
CCCCCCCC(=O)OCC(CCCCN(CCCCC(COC(=O)CCCCCCC)COC(=O)CCCCCCC)CCCNc1c(N(C)C)c(=O)c1=O)COC(=O)CCCCCCC [Compound 27] | 0.073 | 64.02 nm | 6.404 | 91.59% | A (≥2)
CCCCCCCC(=O)OCC(CCCCN(CCCCC(COC(=O)CCCCCCC)COC(=O)CCCCCCC)[C@H]1C[C@@H](O)C1)COC(=O)CCCCCCC [Compound 43] | 0.057 | 64.77 nm | 6.653 | 89.21% | A (≥2)
CCCCCCCC(=O)OCC(COC(=O)CCCCCCC)OCCCN(CCCOC(COC(=O)CCCCCCC)COC(=O)CCCCCCC)CCN(CCO)C1CCCCC1 [Compound 14] | 0.049 | 91.43 nm | 6.457 | 82.84% | A (≥2)
CCCCCCCCCCCCCCCCCC(=O)OCCCCCCN(CCCCC(COC(=O)CCCCCCC)COC(=O)CCCCCCC)C1CCC(O)CC1 (stereo not drawn) [Compound 36] | 0.1156 | 78.92 nm | 6.867 | 85.90% | C (≥0.1 and <1)
CCCCC/C=C\C/C=C\CCCCCCCC(=O)OCCCCCCN(CCO)CCCCC(COC(=O)CCCCCCC)COC(=O)CCCCCCC [Compound 22] | 0.051 | 79.16 nm | 6.748 | 89.98% | A (≥2)
CCCCCCCC(=O)OCC(COC(=O)CCCCCCC)OCCCN(CCCCCO)CCCOC(COC(=O)CCCCCCC)COC(=O)CCCCCCC [Compound 25] | 0.085 | 98.05 nm | 6.418 | 82.87% | B (≥1 and <2)
CCCCCCCC(=O)OCC(CCCCN(CCCCC(COC(=O)CCCCCCC)COC(=O)CCCCCCC)C1CC(O)C1)COC(=O)CCCCCCC (stereo not drawn) [Compound 23] | 0.084 | 69.97 nm | 6.601 | 89.04% | A (≥2)
CCCCCCCC(=O)OCC(CCCCN(CCCCC(COC(=O)CCCCCCC)COC(=O)CCCCCCC)[C@H]1CC[C@H](CO)CC1)COC(=O)CCCCCCC [Compound 59] | 0.066 | 168.4 nm | 6.633 | 72.86% | A (≥2)
CCCCCCCC/C=C\CCCCCCCC(=O)OCCCCCCN(CCCCC(COC(=O)CCCCCCC)COC(=O)CCCCCCC)C1CC(O)C1 (stereo not drawn) [Compound 39] | 0.002 | 84.01 nm | 6.801 | 89.27% | C (≥0.1 and <1)

Further lines, with some results ahead:

Polydispersity [1] | Size (nm) [1] | Apparent pKa [2] | Encapsulation efficiency [4] | SMILES | EPO expression over MC3 [3]
0.040 | 62.56 nm | 6.338 | 96.01% | CCCCCCCC(=O)OCC(COC(=O)CCCCCCC)COC(=O)CCCCCCCN(CCO)CCCCCCCC(=O)OCC(COC(=O)CCCCCCC)COC(=O)CCCCCCC [Compound 65] | A (≥2)
0.07 | 64.48 nm | 6.216 | 95.52% | CCCCCCCCOC(CCCCCN(CCCCCO)CCCCCC(OCCCCCCCC)OCCCCCCCC)OCCCCCCCC [Compound 19] | B (≥1 and <2)
0.01 | 55.11 nm | 6.332 | 85.33% | CCCCCCCCC(CCCCCC)CNC(=O)CCCCCN(CCO)CCCCC(COC(=O)C(CCCCCC)CCCCCCCC)COC(=O)C(CCCCCC)CCCCCCCC (stereo not drawn) [Compound 26] | C (≥0.1 and <1)
0.012 | 106.71 nm | 6.271 | 94.81% | CCCCCCCC(=O)OCC(COC(=O)CCCCCCC)COC(=O)CCCCCN(CCCCCCO)CCCCCC(=O)OCC(COC(=O)CCCCCCC)COC(=O)CCCCCCC [Compound 69] | B (≥1 and <2)
0.017 | 73.11 nm | 6.962 | 93.42% | CCCCCCCCCCCCCCCCCC(=O)OCCCCCCN(CCO)CCCCC(COC(=O)CCCCCCC)COC(=O)CCCCCCC [Compound 21] | B (≥1 and <2)
0.096 | 77.33 nm | 6.219 | 94.67% | CCCCCCCCOC(CCCCCN(CCO)CCCCCC(OCCCCCCCC)OCCCCCCCC)OCCCCCCCC [Compound 15] | C (≥0.1 and <1)
0.07 | 70.66 nm | 6.745 | 90.29% | CCCCCCCC/C=C\CCCCCCCC(=O)OCCCCCCN(CCO)CCCCC(COC(=O)CCCCCCC)COC(=O)CCCCCCC [Compound 24] | C (≥0.1 and <1)
0.04761 | 67.6 nm | 6.34 | 89.70% | CCCCCCCC(=O)OCC(CCCCN(CCCCC(COC(=O)CCCCCCC)COC(=O)CCCCCCC)CCCNc1c(N(C)CC)c(=O)c1=O)COC(=O)CCCCCCC [Compound 34] | A (≥2)
0.037 | 67.7 nm | 6.171 | 95.70% | CCCCCCCC(=O)OCC(COC(=O)CCCCCCC)COC(=O)CCCCCN(CCCCCCCO)CCCCCC(=O)OCC(COC(=O)CCCCCCC)COC(=O)CCCCCCC [Compound 70] | B (≥1 and <2)
0.098 | 68.05 nm | 6.599 | 96.34% | CCCCCCCCCC(=O)OCC(COC(=O)CCCCCCCCC)COC(=O)CCCCCN(CCO)CCCCCC(=O)OCC(COC(=O)CCCCCCCCC)COC(=O)CCCCCCCCC [Compound 71] | A (≥2)
0.159 | 130.62 nm | 6.297 | 90.10% | CCCCCCCCC(CCCCCC)CNC(=O)CCCCCN(CCCCC(COC(=O)CCCCCCC)COC(=O)CCCCCCC)CCC1(O)CCCCC1 (stereo not drawn) [Compound 63] | C (≥0.1 and <1)
0.078 | 72.72 nm | 6.889 | 91.22% | CCCCCCCCCCCCCCCC(=O)OCCCCCCN(CCO)CCCCC(COC(=O)CCCCCCC)COC(=O)CCCCCCC [Compound 20] | A (≥2)
